# Values of other authors as cited in patent US20050118266A1, “Sustained/controlled release solid formulation as a novel drug delivery system with reduced risk of dose dumping” (priority 2002, published 2005).
# Details: according to Biopharmaceutics Classification System
SMILES,BCS class,solubility (BCS category)
O=C(O)Cc1ccccc1Nc1c(Cl)cccc1Cl [diclofenac sodium],Class II,poorly soluble
NCC1(CC(=O)O)CCCCC1 [gabapentin],–,highly soluble
CC[C@H](C)C(=O)O[C@H]1C[C@H](O)C=C2C=C[C@H](C)[C@H](CC[C@@H](O)C[C@@H](O)CC(=O)O)[C@H]21 [pravastatin sodium],–,highly soluble
CNC(=C[N+](=O)[O-])NCCSCc1ccc(CN(C)C)o1 [ranitidine],–,highly soluble
Cc1cccc(Nc2ccncc2S(=O)(=O)NC(=O)NC(C)C)c1 [torasemide],Class I,highly soluble
